Assay results from patent publication US20220137057A1 (priority 2019, published 2022).
Read-outs that look alike come from different tables or passages of the source.

Assays:
[1] = system: Lemna paucicostata; settings: in vivo
[2] = system: Pyricularia oryzae, Strain J1; format: cell-based; settings: for Fractional contribution of metabolite RI 3507: control 0.09 to 0.12; for Position of enzymatic inhibition in the metabolic sequence (breaking point): from increase/decrease of label incorporation, FIG. 3; for Non-polar metabolites changed (number of metabolite MIDs) / Polar metabolites changed (number of metabolite MIDs): treatment vs control; for Non-polar metabolites changed (number of metabolite MIDs): threshold 2% M0 difference, non-polar phase; for Polar metabolites changed (number of metabolite MIDs): threshold 5% M0 difference, polar phase
[3] = system: ergosterol biosynthesis; assay: Metabolomics (metabolite profiling) of fenpropidin treatment, FIG. 5; format: cell-based; settings: samples 0.5, 2, 6 and 48 hours after treatment

Compound | Change in fractional contribution of differentially labeled metabolites [1] | Mode-of-action indicated by MIAMI [1] | Mode-of-action pinpointed by MIAMI [2] | Fractional contribution of metabolite RI 3507 ([2]; 2 hours after treatment) | Fractional contribution of metabolite RI 3507 ([2]; 6 hours after treatment) | Position of enzymatic inhibition in the metabolic sequence (breaking point) [2] | Non-polar metabolites changed (number of metabolite MIDs) [2] | Polar metabolites changed (number of metabolite MIDs) [2] | Change in ergosterol (metabolomics, fold-change to control) [3]
CC(C)C1(C)N=C(c2ncccc2C(=O)O)NC1=O (stereo not drawn) [herbicide four, Imazapyr] | increase in fractional contribution, except for valine | mode-of-action in the valine biosynthesis pathway |  |  |  |  |  |  | 
Fc1ccc([C@]2(Cn3cncn3)O[C@H]2c2ccccc2Cl)cc1 (racemic) [fung 2, Epoxiconazole] |  |  | a hand full of potential targets in steroid biosynthesis | 0.17 | 0.37 | between RI 3569 and RI 3309 | 34 | 26 | 
CC(Cc1ccc(C(C)(C)C)cc1)CN1CCCCC1 (stereo not drawn) [fung 1, Fenpropidin] |  |  | a hand full of potential targets in steroid biosynthesis | 0.16 | 0.18 | between metabolites RI 3507 and RI 3309 | 34 | 19 | reductions in ergosterol, however not significantly after 6 hours
